Reference: patent US12564641B2 (EISAI R&D MANAGEMENT CO., LTD., priority 2019, dated 2026)
Like-named read-outs stand apart in the source and are kept apart here.

How the values were obtained:
[1] = test system: H226 cells; experiment: In vitro cytotoxicity analysis (Crystal Violet), H226; type: cell-based; conditions: Homo sapiens
Experimental: (§1) Plates were read at 570 nm. Data was analyzed using GraphPad Prism 6.

[2] = test system: OVCAR3 cells; experiment: In vitro cytotoxicity analysis (Crystal Violet), OVCAR3; type: cell-based; conditions: Homo sapiens
Experimental: as §1
(§2) All ADCs were purified and characterized using SEC-HPLC for aggregation analysis, HIC-HPLC for DAR analysis, and cell-based assay with A431-A3 (MSLN^hi), A431 (MSLN^lo), and OVCAR3 (MSLN^hi) cell lines.

[3] = test system: A431 cells; experiment: In vitro cytotoxicity analysis (Crystal Violet), A431; conditions: Homo sapiens, A-431, read-out: Cell based Cytotoxicity assay, EC50 (nM) A431-6 hr; treated with ADC for 6 hours then washed off
Experimental: as §1, §2

[4] = test system: MSLN-negative cell lines; experiment: In vitro cytotoxicity (IC50, Crystal Violet) on MSLN-negative cell lines (Example 11); type: cell-based; conditions: for IC50: Homo sapiens, read-out: In vitro cell based potency, IC50
Experimental: Plates were incubated at 37° C. 5% CO2 for an additional 5 days. […] Plates were read at 570 nm.

[5] = test system: human mesothelioma HAY xenograft
Experimental: Female CD-1 IGS mice (Charles River, 7-9 weeks old) were used for the maximum tolerated dose (MTD) study, female NOD.CB17-SCID mice (Jackson Laboratory) were used for the NCI-H2110 and HAY xenograft studies, and female NCr nude mice (Taconic, 5 weeks old) were used for the NCI-N87 xenograft studies. Upon arrival, animals were acclimated for 5-7 days prior to inoculation.
Cryopreserved NCI-H2110, NCI-N87, or HAY cells from frozen stocks were cultured in medium containing necessary supplements.
Mice were injected subcutaneously with 100 μL/mouse of cell mixture and monitored for body weight and tumor growth.
Mice were randomized to five mice per group once tumor implants reached an average volume of 100 mm^3. Treatment was given intravenously at a volume of 200 μL. Terminal body weight was measured and recorded at the end of each study.
Comparison of tumor growth within each experimental group was also performed using the same statistical analysis.

[6] = test system: human NSCLC PDX LXFL-529; experiment: Human NSCLC PDX model LXFL-529
Description: (§3) Animals: Female NMRI nu/nu mice, 4 to 6 weeks of age.
Xenotransplantation: LXFL-529 established growing tumor (T3N1M0) from a primary non-small cell lung adenocarcinoma human patient.
(§4) Experimental procedure: Animals were monitored until the tumor implants reached the study volume criteria of 50-250 mm^3 (e.g., 80-200 mm^3) in a sufficient number of animals. […] The process of the assignment to groups (enrollment, stratified randomization) may also be referred to as randomization. The day of randomization was designated as day 0 of the experiment.
(§5) Tumors were measured and mice were weighed twice a week during the experimental period. The first day of dosing was day 1, one day after randomization (day 0).

[7] = test system: HEC-251 cells; experiment: In vitro cytotoxicity analysis (Crystal Violet), HEC-251; type: cell-based; conditions: Homo sapiens
Experimental: as §1

[8] = test system: human mesothelioma PDX Meso7212; experiment: Human mesothelioma PDX model Meso7212 (Example 3)
Experimental: NMRI nu/nu female mice (Janvier Labs, 5-6 weeks) were acclimated for at least 4 days upon arrival prior to inoculation. Animals was housed 3-5 mice per ventilated cage with sterilized food pellets and water bottle available ad lib. Animals were ear marked and weighed prior to study initiation.
Donor tumor tissue was cut into 2×2 mm fragments and placed in a sterile Petri dish covered with 0.9% saline. In parallel, the receptor animals were subcutaneously treated with the analgesic Metacam® (2 mg/kg) and then anaesthetized by a single intravenous injection (0.15 mL/mouse) with Etomidat-Lipuro® (12 mg/kg). A superficial vertical incision in the skin of 5-8 mm on the left flank was performed. The tip of a surgical scissor was inserted into the incision, directly over the flank, and was used to form a pocket in the subcutaneous space. One tumor fragment per mouse was implanted into the pocket using surgical tweezers. The incision was closed with a metal clip and the animals were placed back into a clean cage.
During tumor propagation, tumor diameters were measured using a digital caliper (Mitutoyo). Animals were randomly assigned into experimental groups according to their tumor volume (inclusion criteria for tumor volume, 0.1-0.3 cm^3). Tumor volumes and body weights were recorded twice weekly.
The administration volume was 10 mL/kg for intravenous injections throughout all experimental groups.
Descriptive statistics were performed on the data for tumor volume and body weight. Tumor volumes of animals from each treatment group were compared with the control group by using a repeated-measures two-way ANOVA, followed by a Bonferroni post-test. Additionally, the comparison of tumor growth of animals within each group was also performed with the same statistical analysis.

[9] = test system: various cell lines (51 cell lines); experiment: In vitro potency (IC50, Crystal Violet) in cell lines with varying mesothelin expression; type: cell-based
Experimental: Cytotoxicitly Cells were sub-cultured and seeded at 5,000 cells/well in complete growth medium in 96-well tissue culture plates, and incubated at 37° C., 5% CO2 overnight (16 hours). Test reagents were serially diluted 1:3 in 2 mL deep-well dilution plates, starting at 200 nM (10 dilutions total). Diluted samples (100 μL) were added to the cell plates (starting concentration of test samples at 100 nM). Plates were incubated at 37° C., 5% CO2 for an additional 5 days. Medium was then discarded, and plates were washed once with 200 μL DPBS, stained with 50 μL of 0.2% Crystal Violet solution at room temperature for 15 min, and then washed extensively with tap water. Plates were air-dried, and Crystal Violet was dissolved with 200 μL of 1% SDS solution. Plates were read at 570 nm. Data was analyzed for IC50 determination using GraphPad Prism 6. Correlation analysis was performed in GraphPad Prism using a non-parametric Spearman analysis.

[10] = test system: human NSCLC PDX LXFA-586; experiment: Human NSCLC PDX model LXFA-586
Description: as §3
Xenotransplantation: LXFA-586 established growing tumor (T2N1M0) from a primary non-small cell lung adenocarcinoma human patient.
as §4, with “mmi)” for “mm^3)”
as §5

Work on `C=C1C[C@@H]2CC[C@@]34C[C@H]5O[C@H]6[C@@H](O3)[C@H]3O[C@H](CC[C@@H]3O[C@H]6[C@H]5O4)CC(=O)C[C@@H]3[C@@H](OC)[C@@H](C[C@H](O)CN)O[C@H]3C[C@H]3O[C@@H](CC[C@@H]1O2)C[C@@H](C)C3=C` [Eribulin, eribulin, reference compound] yielded an EC50 ([1]; NCI-H226, 120 h, Table 18, 5 days, read-out: Cell-Based Cytotoxicity Assay, EC50 (nM) H226) of 5.3 nM, an EC50 ([1]; NCI-H226, Table 19, payloads, read-out: Cell-Based Cytotoxicity Assay EC50 (nM) H226) of 5.3 nM and an EC50 ([2]; OVCAR-3, read-out: Cell based Cytotoxicity assay, EC50 (nM) OVCAR3-6 hr, treated with ADC for 6 hours then washed off) of 2.81 nM. The EC50 ([2]; OVCAR-3, read-out: Cell based Cytotoxicity assay, EC50 (nM) OVCAR3-72 hr, treated for 72 hours) was 0.25 nM, the EC50 [3] was 2.86 nM and the “% Max Killing” value ([4]; A431 cells (MSLN MFI 5.6)) was 93.04%. For the same molecule, the “% Max Killing” value ([4]; BxPC3 cells (MSLN MFI 15.59)) was 97.28%, the IC50 ([4]; A-431, A431 cells (MSLN MFI 5.6)) was 0.18 nM and the IC50 ([4]; BXPC-3, BxPC3 cells (MSLN MFI 15.59)) was 0.13 nM. The IC50 ([4]; SK-OV-3, SKOV3 cells (MSLN MFI 20)) was 0.14 nM, the “% Max Killing” value ([4]; SKOV3 cells (MSLN MFI 20)) was 72.82% and the anti-tumor effect ([5]; eribulin alone 0.1 mg/kg (equivalent molar amount as in MORAb-109)) was “limited anti-tumor effects”. The anti-tumor effect ([5]; eribulin alone at the MTD (3.2 mg/kg)) was “limited anti-tumor effects”, the anti-tumor efficacy ([6]; eribulin single dose of 3.2 mg/kg (mouse MTD) i.v.) was “showed anti-tumor efficacy” and the tolerability / bodyweight ([6]; mouse, in vivo, iv, 3.2 mg/kg) was “slight and transient bodyweight loss”. For the same molecule, the EC50 ([7]; HEC-251, 120 h, Table 18, 5 days, read-out: Cell-Based Cytotoxicity Assay, EC50 (nM) HEC-251) was 0.2 nM, the EC50 ([7]; HEC-251, Table 19, payloads, read-out: Cell-Based Cytotoxicity Assay EC50 (nM) HEC-251) was 0.2 nM and the anti-tumor effect ([8]; Meso7212 (MV15369), eribulin alone 0.2 mg/kg (equivalent molar amount)) was “limited anti-tumor effects”. The body weight change ([8]; Meso7212 (MV16071), eribulin 0.3 mg/kg) was “No body weight loss”, the anti-tumor effect ([8]; Meso7212 (MV16071), eribulin alone 0.3 mg/kg (equivalent molar amount)) was “limited or no anti-tumor effects” and the IC50 ([9]; A431-K5 cells (MSLN MFI 1430.3)) was 1.5 nM. It also gave an IC50 ([9]; COV362, COV362 cells (MSLN MFI 113.5)) of 2.78 nM, an IC50 ([9]; HAC-2 cells (MSLN MFI 172.3)) of 26.6 nM and an IC50 ([9]; HEC-251, HEC-251 cells (MSLN MFI 53.3)) of 0.5 nM. It also gave an IC50 ([9]; HK-1, HK1 cells (MSLN MFI 39.2)) of 0.89 nM, an IC50 ([9]; HNE1, HNE-1 cells (MSLN MFI 110.8)) of 0.87 nM and an IC50 ([9]; HNE-1-T1 cells (MSLN MFI 79.3)) of 1.03 nM. The IC50 ([9]; Homo sapiens, A549, A549 cells (MSLN MFI 14.2)) was 2.72 nM, the IC50 ([9]; Homo sapiens, A-431, A431 cells (MSLN MFI 5.6)) was 0.55 nM and the IC50 ([9]; Homo sapiens, ASPC1, AsPC1 cells (MSLN MFI 33.47)) was 1.62 nM. For the same molecule, the IC50 ([9]; Homo sapiens, BXPC-3, BxPC3 cells (MSLN MFI 15.59)) was 0.66 nM, the IC50 ([9]; Homo sapiens, CNE-2, CNE2 cells (MSLN MFI 147.7)) was 0.49 nM and the IC50 ([9]; Homo sapiens, Caov-3, CaOV-3 cells (MSLN MFI 137.6)) was 0.44 nM. The IC50 ([9]; Homo sapiens, Capan-2, Capan-2 cells (MSLN MFI 36)) was 1.21 nM, the IC50 ([9]; Homo sapiens, EGI-1, EGI-1 cells (MSLN MFI 14.8)) was 1.48 nM and the IC50 ([9]; Homo sapiens, HCC1806, HCC1806 cells (MSLN MFI 189.3)) was 0.37 nM. For the same molecule, the IC50 ([9]; Homo sapiens, HEC-1-A, HEC-1-A cells (MSLN MFI 16.5)) was 0.68 nM, the IC50 ([9]; Homo sapiens, HEC-1B, HEC-1-B cells (MSLN MFI 16.9)) was 0.54 nM and the IC50 ([9]; Homo sapiens, HONE1, HONE1 cells (MSLN MFI 108.6)) was 0.89 nM. It also gave an IC50 ([9]; Homo sapiens, JIMT-1, JIMT-1 cells (MSLN MFI 36.4)) of 0.39 nM, an IC50 ([9]; Homo sapiens, Lu-65, Lu65 cells (MSLN MFI 13.13)) of 0.56 nM and an IC50 ([9]; Homo sapiens, MFE-280, MFE-280 cells (MSLN MFI 45.1)) of 3.24 nM. It also gave an IC50 ([9]; Homo sapiens, MKN-1, MKN1 cells (MSLN MFI 22.06)) of 0.96 nM, an IC50 ([9]; Homo sapiens, MKN-7, MKN7 cells (MSLN MFI 18.48)) of 0.58 nM and an IC50 ([9]; Homo sapiens, MKN-45, MKN45 cells (MSLN MFI 57.94)) of 3.65 nM. The IC50 ([9]; Homo sapiens, MKN-74, MKN74 cells (MSLN MFI 7.73)) was 0.78 nM, the IC50 ([9]; Homo sapiens, NCI-H23, NCI-H23 cells (MSLN MFI 4.42)) was 0.6 nM and the IC50 ([9]; Homo sapiens, NCI-H226, H226 cells (MSLN MFI 725.3)) was 0.66 nM. For the same molecule, the IC50 ([9]; Homo sapiens, NCI-H292, NCI-H292 cells (MSLN MFI 108.6)) was 0.58 nM, the IC50 ([9]; Homo sapiens, NCI-H460, NCI-H460 cells (MSLN MFI 8.56)) was 35.3 nM and the IC50 ([9]; Homo sapiens, NCI-H1355, NCI-H1355 cells (MSLN MFI 11.5)) was 0.67 nM. It also gave an IC50 ([9]; Homo sapiens, NCI-H1650, NCI-H1650/MSLN cells (MSLN MFI 1865.5)) of 0.84 nM, an IC50 ([9]; Homo sapiens, NCI-H1650, NCI-H1650 cells (MSLN MFI 31.5)) of 0.61 nM and an IC50 ([9]; Homo sapiens, NCI-H2126, NCI-H2126 cells (MSLN MFI 73.6)) of 0.53 nM. It also gave an IC50 ([9]; Homo sapiens, NCI-N87, NCI-N87 cells (MSLN MFI 125.8)) of 0.11 nM, an IC50 ([9]; Homo sapiens, OVCAR-3, OVCAR3 A1 cells (MSLN MFI 220)) of 0.15 nM and an IC50 ([9]; Homo sapiens, PC-9, PC9 cells (MSLN MFI 11.24)) of 0.56 nM. For the same molecule, the IC50 ([9]; Homo sapiens, SUNE1, SUNE1 cells (MSLN MFI 212.4)) was 0.56 nM, the IC50 ([9]; Homo sapiens, T47D, T-47D cells (MSLN MFI 4.4)) was 0.68 nM and the IC50 ([9]; Kuramochi cells (MSLN MFI 211.2)) was 0.89 nM. The IC50 ([9]; MOR/CPR cells (MSLN MFI 120.79)) was 3.69 nM, the IC50 ([9]; NCI-H322, NCI-H322 cells (MSLN MFI 83.9)) was 0.46 nM and the IC50 ([9]; NCI-H1355-Sorted cells (MSLN MFI 32.7)) was 0.7 nM. It also gave an IC50 ([9]; NCI-H1568, NCI-H1568/MSLN cells (MSLN MFI 4474)) of 0.44 nM, an IC50 ([9]; NCI-H2110, NCI-H2110 cells (MSLN MFI 112.2)) of 0.32 nM and an IC50 ([9]; SNU-216, SNU216 cells (MSLN MFI 94.91)) of 1.78 nM. It also gave an IC50 ([9]; SNU-245 cells (MSLN MFI 23.9)) of 78.2 nM, an IC50 ([9]; SNU-478 cells (MSLN MFI 53.8)) of 1.58 nM and an IC50 ([9]; SNU-1196 cells (MSLN MFI 40.2)) of 1.14 nM. For the same molecule, the IC50 ([9]; TFK1 cells (MSLN MFI 132.81)) was 1.27 nM, the “minimum T/C” value ([10]; eribulin single dose of 3.2 mg/kg i.v., on day 21) was 14.8% and the tolerability / bodyweight ([10]; mouse, in vivo, iv, 3.2 mg/kg) was “slight and transient bodyweight loss”.
